Results reported in patent US11254671B2, “Chemical compounds” (GLAXOSMITHKLINE INTELLECTUAL PROPERTY DEVELOPMENT LIMITED, priority 2017, dated 2022).

Test system: phosphorylated Akt at serine 473 (pAKTs473) in primary human lung fibroblasts
Assay: Highthroughput phosphorylated Akt (Ser473) in vitro immunoassay (MSD)
Format: cell-based
Details: Fibroblast, 1 h compound, PDGF-BB 10 ng/ml for 10 min, mean of multiple experiments, read-out: mean pIC50, inhibition of pAkt (Ser473) (converted)
From the text: Highthroughput Phosphorylated Akt (Ser473) In Vitro Immunoassay
Immunoassay to measure effect of test compounds on phosphorylated Akt at serine 473 (pAKTs473) in primary human lung fibroblasts (Lonza Group Ltd, Basel, Switzerland, Catalogue No. CC-2512) using the MesoScale Discovery (MSD) platform to quantify levels of total Akt and pAKTser473.
Human lung fibroblasts were routinely maintained in fibroblast basal medium supplemented with 2% foetal bovine serum (FBS), 0.1% human fibroblast growth factor (FGF)-B, 0.1% insulin, 0.1% GA-100 (Lonza Group Ltd, Basel, Switzerland, Catalogue No. CC-3132) at 37° C. in 5% CO2 according to the manufacturer's protocol.
For the assay, cells were harvested using Trypsin/EDTA, (Lonza Group Ltd, Basel, Switzerland, Catalogue No. CC-5012), at working concentration of 0.025%, resuspended to give 3×10^5 cells/ml and 50 ul/well seeded into 384-well plates (Greiner Group, Kremsmunster, Austria, Catalogue No. 781091) in media containing 0.4% FBS and incubated o/n at 37° C. in 5% CO2.
Test compounds were dissolved in 100% DMSO to give 10 mM stock solutions and serially diluted to generate an 11-point concentration response curve. Compound were further diluted by […] into 384-well V-bottom polypropylene plates (Greiner Group, Kremsmunster, Austria, Catalogue No. 781280) with media containing 0.4% FBS to give 50 μM top compound concentration in 0.5% DMSO.
Compounds were transferred to 384-well plates contacting cells (0.1% DMSO final) and incubated for 1 h at 37° C. in 5% CO2, prior to stimulation with platelet-derived growth factor (PDGF)-BB (R&D Systems, Catalogue No. 220-BB) at 10 ng/ml (final) for 10 min at RT. Cell assay plates were incubated on ice and treated with lysis buffer (Cell Signalling Technology, Catalogue No. 9806) containing protease and phosphatase inhibitors (Thermo Scientific, Catalogue No. 78444) followed by shaking for 30 min at 4° C.
MSD plates (MSD, MA6000 384-well GAR plate, Catalogue No. L21RA-2) were blocked with blocking buffer containing TBS (MSD, Cat. No. R61TX-1) with 0.5% bovine serum albumin (BSA) (Sigma Aldrich, Cat. No. A7906), 0.1% tween-20 (Sigma Aldrich, Catalogue No. P2287) and coated with rabbit-anti-human pAkt (s473) ab (Cell Signalling Technology, Catalogue No. CST #4060) at RT with shaking, followed by washing (×3) with 1×TBS wash reagent containing 0.1% Tween-20. Cell lysates (30 ul) were added and MSD plates centrifuged at 1000 rpm at 4° C. o/n.
Plates were washed with 1×TBS wash buffer (×3), prior to addition of mouse-anti-human-total Akt ab (1 mg/ml) (Upstate (Milipore), Catalogue No. 05-591) in blocking buffer and shaken at RT for 1 h. After washing with 1×TBS wash buffer (×3), plates were incubated with goat-anti-mouse SULFO-TAG detection ab (MSD, Catalogue No. R32AC-1) (1:500 in blocking buffer) for 1 h at RT. Plates were washed with 1×TBS (×3) and read buffer (2×) (MSD, Catalogue No. R92TC-1) added before detecting electrochemiluminescence (MSD Sector Imager 6000).
Data analysis was performed by determining % inhibition values for test compounds relative to the minimum (+PDGF-BB stimulation) and maximum responses (no PDGF-BB stimulation) with non-linear regression analysis to determine IC50 values for test compounds.

Structure (SMILES) | IC50
CNCc1cc2nc(-c3cc(C(C)(C)S(C)(=O)=O)cc(N4[C@@H]5CC[C@H]4COC5)n3)ccc2[nH]1 [Example 3, 1-(5-(6-((1R,5S)-3-oxa-8-azabicyclo[3.2.1]octan-8-yl)-4-(2-(methylsulfonyl)propan-2-yl)pyridin-2-yl)-1H-pyrrolo[3,2-b]pyridin-2-yl)-N-methylmethanamine] | 3.16 to 316 nM
CC[C@H]1COCCN1c1cc(C(C)(C)S(C)(=O)=O)cc(-c2ccc3[nH]c(CO)cc3n2)n1 [Example 32] | 3.16 to 316 nM
CCS(=O)(=O)C(C)(C)c1cc(-c2ccc3[nH]c(CNC)cc3n2)nc(N2CCOC[C@@H]2C)c1 [Example 7, (S)-1-(5-(4-(2-(ethylsulfonyl)propan-2-yl)-6-(3-methylmorpholino)pyridin-2-yl)-1H-pyrrolo[3,2-b]pyridin-2-yl)-N-methylmethanamine] | 3.16 to 316 nM
CC[C@H]1COCCN1c1cc(C2(S(=O)(=O)N(C)C)CCOCC2)cc(-c2ccc3[nH]c(CNC)cc3n2)n1 [Example 31, 4-{2-[(3S)-3-ethylmorpholin-4-yl]-6-{2-[(methylamino)methyl]-1H-pyrrolo[3,2-b]pyridin-5-yl}pyridin-4-yl}-N,N-dimethyloxane-4-sulfonamide] | 2.51 to 10 nM
CC[C@H]1COCCN1c1cc(C(C)(C)S(=O)(=O)C2CC2)cc(-c2ccc3[nH]c(CNC)cc3n2)n1 [Example 9, (S)-1-(5-(4-(2-(cyclopropylsulfonyl)propan-2-yl)-6-(3-ethylmorpholino)pyridin-2-yl)-1H-pyrrolo[3,2-b]pyridin-2-yl)-N-methylmethanamine] | 3.16 to 316 nM
CC[C@H]1COCCN1c1cc(CS(=O)(=O)N(C)C)cc(-c2ccc3[nH]c(CO)cc3n2)n1 [Example 35, 1-{2-[(3S)-3-ethylmorpholin-4-yl]-6-[2-(hydroxymethyl)-1H-pyrrolo[3,2-b]pyridin-5-yl]pyridin-4-yl}-N,N-dimethylmethanesulfonamide] | 2.51 to 10 nM
CC[C@H]1COCCN1c1cc(C(C)(C)S(N)(=O)=O)cc(-c2ccc3[nH]c(CNC)cc3n2)n1 [Example 28, 2-{2-[(3S)-3-ethylmorpholin-4-yl]-6-{2-[(methylamino)methyl]-1H-pyrrolo[3,2-b]pyridin-5-yl}pyridin-4-yl}propane-2-sulfonamide] | 3.16 to 316 nM
CC[C@H]1COCCN1c1cc(CS(=O)(=O)N(C)C)cc(-c2ccc3[nH]c(CNC)cc3n2)n1 [Example 17, (S)-1-(2-(3-ethylmorpholino)-6-(2-((methylamino)methyl)-1H-pyrrolo[3,2-b]pyridin-5-yl)pyridin-4-yl)-N,N-dimethylmethanesulfonamide] | 2.51 to 10 nM
CNCc1cc2nc(-c3cc(CS(C)(=O)=O)cc(N4CCOC[C@@H]4C)n3)ccc2[nH]1 [Example 6, (S)—N-methyl-1-(5-(6-(3-methylmorpholino)-4-((methylsulfonyl)methyl)pyridin-2-yl)-1H-pyrrolo[3,2-b]pyridin-2-yl)methanamine] | 3.16 to 316 nM
CC[C@H]1COCCN1c1cc(CS(=O)(=O)NC)cc(-c2ccc3[nH]c(CNC)cc3n2)n1 [Example 30, 1-{2-[(3S)-3-ethylmorpholin-4-yl]-6-{2-[(methylamino)methyl]-1H-pyrrolo[3,2-b]pyridin-5-yl}pyridin-4-yl}-N-methylmethanesulfonamide] | 3.16 to 316 nM
CC[C@H]1COCCN1c1cc(C(C)(C)S(C)(=O)=O)cc(-c2ccc3[nH]c(CN)cc3n2)n1 [Example 21, 1-(5-{6-[(3S)-3-ethylmorpholin-4-yl]-4-(2-methanesulfonylpropan-2-yl)pyridin-2-yl}-1H-pyrrolo[3,2-b]pyridin-2-yl)methanamine] | 3.16 to 316 nM
CC[C@H]1COCCN1c1cc(CS(C)(=O)=O)cc(-c2ccc3[nH]c(CNC)cc3n2)n1 [Example 13, (S)-1-(5-(6-(3-ethylmorpholino)-4-((methylsulfonyl)methyl)pyridin-2-yl)-1H-pyrrolo[3,2-b]pyridin-2-yl)-N-methylmethanamine] | 3.16 to 316 nM
CNCc1cc2nc(-c3cc(C(F)(F)S(C)(=O)=O)cc(N4CCOC[C@@H]4C)n3)ccc2[nH]1 [Example 12, (S)-1-(5-(4-(difluoro(methylsulfonyl)methyl)-6-(3-methylmorpholino)pyridin-2-yl)-1H-pyrrolo[3,2-b]pyridin-2-yl)-N-methylmethanamine] | 3.16 to 316 nM
CNCc1cc2nc(-c3cc(C4(S(C)(=O)=O)CCOCC4)cc(N4C5CCC4COC5)n3)ccc2[nH]1 [Example 40, ({5-[4-(4-methanesulfonyloxan-4-yl)-6-{3-oxa-8-azabicyclo[3.2.1]octan-8-yl}pyridin-2-yl]-1H-pyrrolo[3,2-b]pyridin-2-yl}methyl)(methyl)amine] | 3.16 to 316 nM
CNCc1cc2nc(-c3cc(C4(S(C)(=O)=O)CC4)cc(N4CCOC[C@@H]4C)n3)ccc2[nH]1 [Example 20, ({5-[4-(1-methanesulfonylcyclopropyl)-6-[(3S)-3-methylmorpholin-4-yl]pyridin-2-yl]-1H-pyrrolo[3,2-b]pyridin-2-yl}methyl)(methyl)amine] | 3.16 to 316 nM
CNCc1cc2nc(-c3cc(C(C)(C)S(C)(=O)=O)cc(N4C5CCCC4COC5)n3)ccc2[nH]1 [Example 5, 1-(5-(6-(3-oxa-9-azabicyclo[3.3.1]nonan-9-yl)-4-(2-(methylsulfonyl)propan-2-yl)pyridin-2-yl)-1H-pyrrolo[3,2-b]pyridin-2-yl)-N-methylmethanamine] | 3.16 to 316 nM
CC[C@H]1COCCN1c1cc(C2(S(C)(=O)=O)CCOCC2)cc(-c2ccc3[nH]c(CO)cc3n2)n1 [Example 33, (5-{6-[(3S)-3-ethylmorpholin-4-yl]-4-(4-methanesulfonyloxan-4-yl)pyridin-2-yl}-1H-pyrrolo[3,2-b]pyridin-2-yl)methanol] | 2.51 to 10 nM
CNCc1cc2nc(-c3cc(C(C)(C)S(C)(=O)=O)cc(N4CCOC[C@@H]4C)n3)ccc2[nH]1 [Example 2, (S)—N-methyl-1-(5-(6-(3-methylmorpholino)-4-(2-(methylsulfonyl)propan-2-yl)pyridin-2-yl)-1H-pyrrolo[3,2-b]pyridin-2-yl)methanamine] | 3.16 to 316 nM
CC[C@H]1COCCN1c1cc(CS(=O)(=O)C2CC2)cc(-c2ccc3[nH]c(CNC)cc3n2)n1 [Example 10, (S)-1-(5-(4-((cyclopropylsulfonyl)methyl)-6-(3-ethylmorpholino)pyridin-2-yl)-1H-pyrrolo[3,2-b]pyridin-2-yl)-N-methylmethanamine] | 2.51 to 10 nM
CC[C@H]1COCCN1c1cc(C2(S(C)(=O)=O)CCOCC2)cc(-c2ccc3[nH]c(CN)cc3n2)n1 [Example 23, 1-(5-{6-[(3S)-3-ethylmorpholin-4-yl]-4-(4-methanesulfonyloxan-4-yl)pyridin-2-yl}-1H-pyrrolo[3,2-b]pyridin-2-yl)methanamine] | 2.51 to 10 nM
CC[C@H]1COCCN1c1cc(CS(C)(=O)=O)cc(-c2ccc3[nH]c(CO)cc3n2)n1 [Example 34, (5-{6-[(3S)-3-ethylmorpholin-4-yl]-4-(methanesulfonylmethyl)pyridin-2-yl}-1H-pyrrolo[3,2-b]pyridin-2-yl)methanol] | 2.51 to 10 nM
CC[C@H]1COCCN1c1cc(C2(S(C)(=O)=O)CC2)cc(-c2ccc3[nH]c(CNC)cc3n2)n1 [Example 19, [(5-{6-[(3S)-3-ethylmorpholin-4-yl]-4-(1-methanesulfonylcyclopropyl)pyridin-2-yl}-1H-pyrrolo[3,2-b]pyridin-2-yl)methyl](methyl)amine] | 2.51 to 10 nM
CNCc1cc2nc(-c3cc(CS(C)(=O)=O)cc(N4CC5CCC(C4)O5)n3)ccc2[nH]1 [Example 25, ({5-[4-(methanesulfonylmethyl)-6-{8-oxa-3-azabicyclo[3.2.1]octan-3-yl}pyridin-2-yl]-1H-pyrrolo[3,2-b]pyridin-2-yl}methyl)(methyl)amine] | 3.16 to 316 nM
